Test results: paper PMC3923778 (PLoS Currents, 2014)
Entries after “also recorded” stand apart in the source; their conditions may differ.

How the values were obtained:
PDE1 = system: PDE1; set-up: method as in PMID 9216839, PMID 17697115, PMID 8961086, PMID 7581878; conditions: ref [12], [23], [27], [28], read-out: reported IC50; cited from earlier work
[1] = Microdialysis PK: SCH-51866 in striatal extracellular dialysate; format: in vivo, mouse; conditions: single oral dose, male R6/2, 7-8 weeks
Experimental: Microdialysis PK/PD studies were conducted at Brains Online, Inc. (San Francisco, CA, USA) Male R6/2 (CBA/C57Bl/6 strain, CAG 120) mice aged 7-8 weeks (20 - 30 g; The Jackson Laboratory, USA) were used for the experiments. The animals were group housed in plastic cages (3-4 animals / cage) and had access to food and water ad libitum. Experiments were conducted in accordance with the declarations of Helsinki and were approved by the Institutional Animal Care and Use Committee of the University of California, San-Francisco. […] Mice were anesthetized using isoflurane (2%, 800 mL/min O2). Bupivacain/epinephrine was used for local anesthesia. Carprophen was used peri-/post-operative as analgesia. The animals were placed in a stereotaxic frame (Kopf instruments, USA), and microdialysis probes were inserted into the striatum. […] After surgery animals were kept individually in cages and provided food and water ad libitum. Animals were fasted the night before the experiment. Experiments were performed one day after surgery. […] Treatment effects were evaluated among different drug concentrations and also compared to baseline, using two-way ANOVA for repeated measurements followed by Student-Newman-Keuls post-hoc test. […] Pharmacodynamic parameters were calculated using Phoenix™ WinNonlin® Pro Node initial (Pharsight Corporation, Mountain View, CA, USA).

R6/2 mice = test: Chronic oral dosing in the R6/2 mouse model, overall disease progression; format: in vivo; conditions: chronic oral administration, 10 or 30 mg/kg BID p.o. from 4 weeks
Experimental: All animal experiments were carried out according to the National Institute of Health (NIH) guidelines for the care and use of laboratory animals, and approved by the National Laboratory Animal Board, Finland. 60 male and female R6/2 TG mice (R6/2J CAG 120 and 12 male and female wild-type littermate control mice were bred at National Animal Facility Center, Kuopio, Finland.
Mice were housed in groups of 4 and separated by sexes. In each cage, one wild-type mouse of the same sex, but different litter, was included in an attempt to provide normal social stimulation. Mice were allowed to acclimate to the experimental room for at least one hour prior to the beginning of any experiment. Mice were transported from the colony room to experimental rooms in their home cages. Experimentation was conducted in a blinded manner. Tail samples were taken at the end of the study for verification of genotypes and CAG sizes of individual mice.
All values are presented as mean ± Standard Error of Mean (SEM), and differences are considered to be statistically significant at the p < 0.05 level. Statistical analysis was performed using StatsDirect statistical software. Differences between group means were analyzed by 1-way-ANOVA followed by Dunnett’s test (comparison to the control (=vehicle treated TG mice) group). The acquisition of the Cued two-choice swim test was analyzed using Fisher’s exact test.

## CN1C(=O)c2nc(Cc3ccc(C(F)(F)F)cc3)[nH]c2N2C1=N[C@H]1CCC[C@H]12 [SCH-51866, (+)-cis-5,6a,7,8,9,9a-hexahydro-2-[4-[trifluro-methyl]phenylmethyl]-5-methyl-cylopent[4,5]imidazo [2,1-b]purin-4(3H)one]
PDE1
  IC50: 70 nM
[1]
  SCH-51866 in brain extracellular fluid: dose-dependent accumulation
R6/2 mice
  effect on R6/2 disease progression / disease-related phenotypes: did not ameliorate disease progression; also recorded: did not modify any R6/2 disease-related phenotypes
